Assay results reported in US11666566B2, “Formulations and pharmacokinetics of deuterated benzoquinoline inhibitors of vesicular monoamine transporter 2” (AUSPEX PHARMACEUTICALS, INC., priority 2012, dated 2023).
Like-named read-outs stand apart in the source and are kept apart here.

How the values were obtained:
[1] = human plasma; cited from earlier work
[2] = co-administration of tetrabenazine and paroxetine, compared to tetrabenazine alone; cited from earlier work
[3] = Phase 1 pharmacokinetic study, single oral 25 mg dose of d6-tetrabenazine or tetrabenazine (immediate release, powder in capsule), two-period crossover; type: in vivo, human; conditions: for Ratio of LS Means, AUCinf / Ratio of LS Means, AUClast / Ratio of LS Means, Cmax / Ratio of LS Means, t1/2: d6-tetrabenazine 25 mg (test) to tetrabenazine 25 mg (reference), ANOVA; for AUCinf / Cmax / Tmax / t1/2 / AUClast: plasma analyte, single oral 25 mg d6-tetrabenazine or tetrabenazine; for AUCinf / Cmax / Tmax / t1/2 / AUClast / AUCinf (AUClast presented for parent drug as AUCinf not calculable): fasted, mean; for AUCinf (AUClast presented for parent drug as AUCinf not calculable): parent drug in plasma, single oral 25 mg
Description: A Phase 1 pharmacokinetic study was conducted in 24 healthy extensive and intermediate CYP2D6 metabolizer volunteers receiving oral 25 mg doses of d6-tetrabenazine or tetrabenazine to compare the relative bioavailability and pharmacokinetics of single oral doses of d6-tetrabenazine and its metabolites d6-α-HTBZ and d6-β-HTBZ with their non-deuterated equivalents (tetrabenazine, α-HTBZ and β-HTBZ) as well as the corresponding O-desmethyl metabolites of α-HTBZ and β-HTBZ. Subjects received a single oral dose of 25 mg of d6-tetrabenazine or tetrabenazine after an overnight fast, as a powder in capsule, in Period 1 and following washout of at least 7 days. Patients were crossed over to receive the other treatment in Period 2. In each period, plasma samples were collected over 72 hours post-dose.
Pharmacokinetic results are shown below in Table 37 and FIG. 3, results are presented as Mean (% CV) for Cmax, AUC and t1/2 (AUClast presented for parent drug as AUCinf not calculable), and as Mean (range) for Tmax. The increased exposure was principally attributable to increases in half-life and was associated with proportional reductions in O-desmethyl metabolites of HTBZ.
The effect of deuteration on key pharmacokinetic parameters was evaluated by comparing d6-tetrabenazine (test) to tetrabenazine (reference) using an analysis of variance (ANOVA) model for a two-period crossover including factors Sequence, Treatment, Period and Subject. Pharmacokinetic parameters were log-transformed before analysis.

[4] = type: in vitro ADME
Text: d6-Tetrabenazine has been designed with the intent to improve the pharmacokinetic profile of active metabolites α-HTBZ and β-HTBZ. The CYP mediated cleavage of the carbon-deuterium bonds within the trideuterated methyl groups (CD3) of d6-tetrabenazine is slower than the cleavage of the carbon-hydrogen bonds in the methyl groups (CH3) of tetrabenazine, an effect that selectively attenuated O-demethylation of deuterated α-HTBZ and β-HTBZ (d6-α-HTBZ and d6-β-HTBZ) in in vitro studies.
The spectrum of metabolites produced by d6-tetrabenazine is expected to be similar to that in patients with reduced CYP2D6 metabolism who receive tetrabenazine. This is based on in vitro metabolism studies and a drug interaction study of tetrabenazine and paroxetine. In the drug interaction study, co-administration of tetrabenazine and paroxetine increased systemic exposure to the α-HTBZ and β-HTBZ metabolites by 3- to 9-fold, respectively, compared to tetrabenazine alone (Xenazine® U.S. prescribing information). […] Administration of d6-tetrabenazine to healthy volunteers led to an approximate 2-fold increase in systemic exposure to α-HTBZ and β-HTBZ and proportional reductions in O-desmethyl metabolites compared to tetrabenazine. […]

AUCinf [3]	Cmax [3]	Tmax [3]	t1/2 [3]	AUClast [3]	Compound	also measured
74.0 ng·h/mL	20.5 ng/mL	1.00 h	2.95 h	–	COc1cc2c(cc1OC)[C@H]1C[C@H](O)[C@H](CC(C)C)CN1CC2 [β-HTBZ, beta-dihydrotetrabenazine]	half-lives [1]: 5 h; increase in systemic exposure [2]: 9 fold; Ratio of LS Means, AUCinf [3]: 235.8%; Ratio of LS Means, AUClast [3]: 240.1%; Ratio of LS Means, Cmax [3]: 145.8%; Ratio of LS Means, t1/2 [3]: 153.0%
189 ng·h/mL	41.2 ng/mL	1.00 h	5.47 h	–	alpha-dihydrotetrabenazine [α-HTBZ]	half-lives [1]: 7 h; increase in systemic exposure [2]: 3 fold; Ratio of LS Means, AUCinf [3]: 213.6%; Ratio of LS Means, AUClast [3]: 214.8%; Ratio of LS Means, Cmax [3]: 113.7%; Ratio of LS Means, t1/2 [3]: 174.7%
–	2.15 ng/mL	3.02 h	–	21.0 ng·h/mL	[2H]C([2H])([2H])Oc1cc2c(cc1O)CCN1C[C@@H](CC(C)C)[C@H](O)C[C@H]21 [d3-9-O-desmethyl-α-HTBZ]	–
220 ng·h/mL	15.7 ng/mL	1.75 h	16.2 h	205 ng·h/mL	COc1cc2c(cc1O)CCN1C[C@@H](CC(C)C)[C@@H](O)C[C@H]21 [9-O-desmethyl-β-HTBZ]	–
114 ng·h/mL	6.29 ng/mL	1.75 h	16.9 h	92.4 ng·h/mL	[2H]C([2H])([2H])Oc1cc2c(cc1O)CCN1C[C@@H](CC(C)C)[C@@H](O)C[C@H]21 [d3-9-O-desmethy1-β-HTBZ]	–
–	–	–	–	–	COc1cc2c(cc1OC)[C@@H]1CC(=O)[C@@H](CC(C)C)CN1CC2 (racemic) [Tetrabenazine, (3R,11bR)-1,3,4,6,7,11b-Hexahydro-9,10-dimethoxy-3-(2-methylpropyl)-2H-benzo[a]quinolizin-2-one, and (3S,11bS)-1,3,4,6,7,11b-hexahydro-9,10-dimethoxy-3-(2-methylpropyl)-2H-benzo[a]quinolizin-2-one, reference compound]	Cmax ([3]; human, read-out: Cmax): 0.314 ng/mL; AUCinf (AUClast presented for parent drug as AUCinf not calculable) [3]: 0.26 ng·h/mL
373 ng·h/mL	46.1 ng/mL	1.5 h	8.97 h	–	[2H]C([2H])([2H])Oc1cc2c(cc1OC([2H])([2H])[2H])[C@H]1C[C@@H](O)[C@H](CC(C)C)CN1CC2 [d6-α-HTBZ, deuterated alpha-dihydrotetrabenazine]	less of the O-desmethyl metabolites produced [4]: 69-87%
–	0.59 ng/mL	1.50 h	–	0.7 ng·h/mL	[2H]C([2H])([2H])Oc1cc2c(cc1O)C1CC(O)C(CC(C)C)CN1CC2 (stereo not drawn) [d3-10-ODM-β-HTBZ]	–
171 ng·h/mL	29.6 ng/mL	1.50 h	5.00 h	–	[2H]C([2H])([2H])Oc1cc2c(cc1OC([2H])([2H])[2H])[C@@H]1C[C@@H](O)[C@@H](CC(C)C)CN1CC2 [d6-β-HTBZ, deuterated beta-dihydrotetrabenazine]	less of the O-desmethyl metabolites produced [4]: 69-87%
–	1.63 ng/mL	1.25 h	–	3.0 ng·h/mL	COc1cc2c(cc1O)C1CC(O)C(CC(C)C)CN1CC2 (stereo not drawn) [10-ODM-β-HTBZ]	–
49.9 ng·h/mL	5.05 ng/mL	2.00 h	6.95 h	42.5 ng·h/mL	COc1cc2c(cc1O)CCN1C[C@@H](CC(C)C)[C@H](O)C[C@H]21 [9-O-desmethyl-α-HTBZ]	–
–	–	–	–	–	[2H]C([2H])([2H])Oc1cc2c(cc1OC([2H])([2H])[2H])[C@@H]1CC(=O)[C@@H](CC(C)C)CN1CC2 (racemic) [d6-Tetrabenazine, (3R,11bR)-1,3,4,6,7,11b-hexahydro-9,10-di(methoxy-d3)-3-(2-methylpropyl)-2H-benzo[a]quinolizin-2-one and (3S,11bS)-1,3,4,6,7,11b-hexahydro-9,10-di(methoxy-d3)-3-(2-methylpropyl)-2H-benzo[a]quinolizin-2-one]	systemic exposure to total (α+β)-HTBZ ([3]; compared to exposure following tetrabenazine administration): more than doubling; Cmax ([3]; human, read-out: Cmax): 0.327 ng/mL; AUCinf (AUClast presented for parent drug as AUCinf not calculable) [3]: 0.30 ng·h/mL
